Reference: the NIST ThermoML archive (doi:10.1021/je100851w)
Numbers after ± are expanded uncertainties.

Assay: xn = mol fraction of the nth substance listed
Conditions: Vibrating tube method

S [hydrogen sulfide] + CCC
Conditions | mass density [kg/m3]
263.11 K, 8 kPa, Gas, x1 = 0.2227 | 0.1
263.11 K, 159 kPa, Gas, x1 = 0.2227 | 3.1 ± 0.1
263.11 K, 298 kPa, Gas, x1 = 0.2227 | 6.1 ± 0.1
263.11 K, 438 kPa, Gas, x1 = 0.2227 | 9.1 ± 0.1
263.11 K, 707 kPa, Liquid, x1 = 0.2227 | 571.2 ± 0.3
263.11 K, 2357 kPa, Liquid, x1 = 0.2227 | 574.3 ± 0.3
263.11 K, 4057 kPa, Liquid, x1 = 0.2227 | 577.3 ± 0.3
263.11 K, 5814 kPa, Liquid, x1 = 0.2227 | 580.3 ± 0.4
263.11 K, 7697 kPa, Liquid, x1 = 0.2227 | 583.3 ± 0.4
263.11 K, 9735 kPa, Liquid, x1 = 0.2227 | 586.4 ± 0.5
263.11 K, 11879 kPa, Liquid, x1 = 0.2227 | 589.5 ± 0.5
263.11 K, 14087 kPa, Liquid, x1 = 0.2227 | 592.6 ± 0.5
263.11 K, 16300 kPa, Liquid, x1 = 0.2227 | 595.6 ± 0.6
263.11 K, 18708 kPa, Liquid, x1 = 0.2227 | 598.6 ± 0.6
263.11 K, 21118 kPa, Liquid, x1 = 0.2227 | 601.6 ± 0.7
263.11 K, 23736 kPa, Liquid, x1 = 0.2227 | 604.6 ± 0.7
263.11 K, 26466 kPa, Liquid, x1 = 0.2227 | 607.7 ± 0.8
263.11 K, 29282 kPa, Liquid, x1 = 0.2227 | 610.8 ± 0.8
263.11 K, 32290 kPa, Liquid, x1 = 0.2227 | 613.9 ± 0.9
263.11 K, 35311 kPa, Liquid, x1 = 0.2227 | 616.9 ± 0.9
263.11 K, 38486 kPa, Liquid, x1 = 0.2227 | 620 ± 1
263.11 K, 41881 kPa, Liquid, x1 = 0.2227 | 623.1 ± 1
268.09 K, 9 kPa, Gas, x1 = 0.2691 | 0.2
268.09 K, 180 kPa, Gas, x1 = 0.2691 | 3.5 ± 0.1
268.09 K, 335 kPa, Gas, x1 = 0.2691 | 6.7 ± 0.1
268.09 K, 476 kPa, Gas, x1 = 0.2691 | 9.7 ± 0.1
268.09 K, 818 kPa, Liquid, x1 = 0.2691 | 570 ± 0.3
268.09 K, 2369 kPa, Liquid, x1 = 0.2691 | 573.1 ± 0.3
268.09 K, 3999 kPa, Liquid, x1 = 0.2691 | 576.3 ± 0.3
268.09 K, 5608 kPa, Liquid, x1 = 0.2691 | 579.3 ± 0.4
268.09 K, 7451 kPa, Liquid, x1 = 0.2691 | 582.5 ± 0.4
268.09 K, 9258 kPa, Liquid, x1 = 0.2691 | 585.5 ± 0.4
268.09 K, 11262 kPa, Liquid, x1 = 0.2691 | 588.7 ± 0.5
268.09 K, 13236 kPa, Liquid, x1 = 0.2691 | 591.8 ± 0.5
268.09 K, 15455 kPa, Liquid, x1 = 0.2691 | 595 ± 0.6
268.09 K, 17739 kPa, Liquid, x1 = 0.2691 | 598.2 ± 0.6
268.09 K, 20006 kPa, Liquid, x1 = 0.2691 | 601.2 ± 0.6
268.09 K, 22487 kPa, Liquid, x1 = 0.2691 | 604.4 ± 0.7
268.09 K, 24903 kPa, Liquid, x1 = 0.2691 | 607.4 ± 0.7
268.09 K, 27518 kPa, Liquid, x1 = 0.2691 | 610.5 ± 0.8
268.09 K, 30199 kPa, Liquid, x1 = 0.2691 | 613.6 ± 0.8
268.09 K, 33045 kPa, Liquid, x1 = 0.2691 | 616.7 ± 0.9
268.09 K, 36027 kPa, Liquid, x1 = 0.2691 | 619.8 ± 0.9
268.09 K, 39139 kPa, Liquid, x1 = 0.2691 | 622.9 ± 1
293.28 K, 14 kPa, Gas, x1 = 0.2227 | 0.2
293.28 K, 186 kPa, Gas, x1 = 0.2227 | 3.3 ± 0.1
293.28 K, 350 kPa, Gas, x1 = 0.2227 | 6.3 ± 0.1
293.28 K, 509 kPa, Gas, x1 = 0.2227 | 9.4 ± 0.1
293.28 K, 665 kPa, Gas, x1 = 0.2227 | 12.6 ± 0.1
293.28 K, 804 kPa, Gas, x1 = 0.2227 | 15.6 ± 0.1
293.28 K, 932 kPa, Gas, x1 = 0.2227 | 18.7 ± 0.1
293.28 K, 1050 kPa, Gas, x1 = 0.2227 | 21.9 ± 0.1
293.28 K, 3770 kPa, Liquid, x1 = 0.2227 | 518.4 ± 0.4
293.28 K, 4686 kPa, Liquid, x1 = 0.2227 | 521.6 ± 0.4
293.28 K, 5576 kPa, Liquid, x1 = 0.2227 | 524.8 ± 0.4
293.28 K, 6556 kPa, Liquid, x1 = 0.2227 | 527.8 ± 0.4
293.28 K, 7610 kPa, Liquid, x1 = 0.2227 | 530.9 ± 0.5
293.28 K, 8755 kPa, Liquid, x1 = 0.2227 | 534.1 ± 0.5
293.28 K, 9941 kPa, Liquid, x1 = 0.2227 | 537.3 ± 0.5
293.28 K, 11195 kPa, Liquid, x1 = 0.2227 | 540.5 ± 0.5
293.28 K, 12466 kPa, Liquid, x1 = 0.2227 | 543.5 ± 0.6
293.28 K, 13825 kPa, Liquid, x1 = 0.2227 | 546.6 ± 0.6
293.28 K, 15156 kPa, Liquid, x1 = 0.2227 | 549.6 ± 0.6
293.28 K, 16605 kPa, Liquid, x1 = 0.2227 | 552.6 ± 0.6
293.28 K, 18128 kPa, Liquid, x1 = 0.2227 | 555.6 ± 0.7
293.28 K, 19790 kPa, Liquid, x1 = 0.2227 | 558.8 ± 0.7
293.28 K, 21473 kPa, Liquid, x1 = 0.2227 | 561.9 ± 0.7
293.28 K, 23224 kPa, Liquid, x1 = 0.2227 | 564.9 ± 0.8
293.28 K, 25127 kPa, Liquid, x1 = 0.2227 | 568.1 ± 0.8
293.28 K, 27137 kPa, Liquid, x1 = 0.2227 | 571.3 ± 0.8
293.28 K, 29216 kPa, Liquid, x1 = 0.2227 | 574.5 ± 0.9
293.28 K, 31365 kPa, Liquid, x1 = 0.2227 | 577.6 ± 0.9
293.28 K, 33453 kPa, Liquid, x1 = 0.2227 | 580.6 ± 1
293.28 K, 35831 kPa, Liquid, x1 = 0.2227 | 583.8 ± 1
313.12 K, 202 kPa, Gas, x1 = 0.2691 | 3.3 ± 0.1
313.12 K, 382 kPa, Gas, x1 = 0.2691 | 6.4 ± 0.1
313.12 K, 558 kPa, Gas, x1 = 0.2691 | 9.5 ± 0.1
313.12 K, 722 kPa, Gas, x1 = 0.2691 | 12.6 ± 0.1
313.12 K, 878 kPa, Gas, x1 = 0.2691 | 15.7 ± 0.1
313.12 K, 1040 kPa, Gas, x1 = 0.2691 | 19 ± 0.1
313.12 K, 1178 kPa, Gas, x1 = 0.2691 | 22 ± 0.1
313.12 K, 1322 kPa, Gas, x1 = 0.2691 | 25.3 ± 0.1
313.12 K, 1455 kPa, Gas, x1 = 0.2691 | 28.5 ± 0.1
313.12 K, 1580 kPa, Gas, x1 = 0.2691 | 31.7 ± 0.1
313.12 K, 1693 kPa, Gas, x1 = 0.2691 | 34.9 ± 0.1
313.12 K, 1773 kPa, Gas, x1 = 0.2691 | 37.9 ± 0.1
313.12 K, 2189 kPa, Liquid, x1 = 0.2691 | 491.5 ± 0.3
313.12 K, 2787 kPa, Liquid, x1 = 0.2691 | 494.6 ± 0.4
313.12 K, 3465 kPa, Liquid, x1 = 0.2691 | 498 ± 0.4
313.12 K, 4173 kPa, Liquid, x1 = 0.2691 | 501.2 ± 0.4
313.12 K, 4917 kPa, Liquid, x1 = 0.2691 | 504.4 ± 0.4
313.12 K, 5710 kPa, Liquid, x1 = 0.2691 | 507.6 ± 0.4
313.12 K, 6516 kPa, Liquid, x1 = 0.2691 | 510.6 ± 0.5
313.12 K, 7434 kPa, Liquid, x1 = 0.2691 | 513.9 ± 0.5
313.12 K, 8423 kPa, Liquid, x1 = 0.2691 | 517.3 ± 0.5
313.12 K, 9421 kPa, Liquid, x1 = 0.2691 | 520.5 ± 0.5
313.12 K, 10495 kPa, Liquid, x1 = 0.2691 | 523.7 ± 0.5
313.12 K, 11669 kPa, Liquid, x1 = 0.2691 | 527.1 ± 0.6
313.12 K, 12933 kPa, Liquid, x1 = 0.2691 | 530.5 ± 0.6
313.12 K, 14205 kPa, Liquid, x1 = 0.2691 | 533.7 ± 0.6
313.12 K, 15491 kPa, Liquid, x1 = 0.2691 | 536.9 ± 0.6
313.12 K, 16847 kPa, Liquid, x1 = 0.2691 | 540 ± 0.7
313.12 K, 18303 kPa, Liquid, x1 = 0.2691 | 543.3 ± 0.7
313.12 K, 19787 kPa, Liquid, x1 = 0.2691 | 546.4 ± 0.7
313.12 K, 21354 kPa, Liquid, x1 = 0.2691 | 549.6 ± 0.8
313.12 K, 22903 kPa, Liquid, x1 = 0.2691 | 552.6 ± 0.8
313.12 K, 24556 kPa, Liquid, x1 = 0.2691 | 555.7 ± 0.8
313.12 K, 26292 kPa, Liquid, x1 = 0.2691 | 558.8 ± 0.9
313.12 K, 28082 kPa, Liquid, x1 = 0.2691 | 561.8 ± 0.9
313.12 K, 29973 kPa, Liquid, x1 = 0.2691 | 564.9 ± 0.9
313.12 K, 32005 kPa, Liquid, x1 = 0.2691 | 568.1 ± 1
313.12 K, 34062 kPa, Liquid, x1 = 0.2691 | 571.2 ± 1
313.12 K, 36163 kPa, Liquid, x1 = 0.2691 | 574.3 ± 1
313.12 K, 38383 kPa, Liquid, x1 = 0.2691 | 577.4 ± 1.1
333.22 K, 50 kPa, Gas, x1 = 0.2227 | 0.8 ± 0.1
333.22 K, 260 kPa, Gas, x1 = 0.2227 | 4.1 ± 0.1
333.22 K, 470 kPa, Gas, x1 = 0.2227 | 7.5 ± 0.1
333.22 K, 671 kPa, Gas, x1 = 0.2227 | 10.9 ± 0.1
333.22 K, 838 kPa, Gas, x1 = 0.2227 | 13.9 ± 0.1
333.22 K, 995 kPa, Gas, x1 = 0.2227 | 16.9 ± 0.1
333.22 K, 1186 kPa, Gas, x1 = 0.2227 | 20.5 ± 0.1
333.22 K, 1363 kPa, Gas, x1 = 0.2227 | 24.1 ± 0.1
333.22 K, 1512 kPa, Gas, x1 = 0.2227 | 27.2 ± 0.1
333.22 K, 1663 kPa, Gas, x1 = 0.2227 | 30.6 ± 0.1
333.22 K, 1805 kPa, Gas, x1 = 0.2227 | 33.9 ± 0.1
333.22 K, 1931 kPa, Gas, x1 = 0.2227 | 37 ± 0.1
